Measured values as given in paper PMC8654833 (Scientific Reports, 2021).

Tests used:
[1] = biological target: T1, 5-HT5A (Homo sapiens, UniProt P47898); test: Radioligand binding competition dose-response (Euroscreen), 5-HT5A; conditions: dose-response study, maximal concentration 10 µM, [3H]LSD
T1 construct: Euroscreen FAST (contract assay)
Description: (§1) This study included binding assays (87 GPCR targets), measured as % of binding inhibition of a reference radioligand, as well as uptake and enzyme assays (19 targets), the latter measured as % inhibition of control enzyme activity. […] It was performed by radioligand binding competition by Euroscreen (Euroscreen FAST, Belgium). The following nanomolar concentrations were tested in duplicate: 0.001, 0.01, 0.1, 1, 10, 100, 1000, 10,000. Dose–response curves were fitted with the least squares method. IC50 results are shown as pIC50, corresponding to the negative log10 of IC50 in molar.

[2] = biological target: Ca^2+ channel, vs; test: Radioligand binding competition dose-response (Euroscreen), Ca2+ channel verapamil site
Description: as §1

[3] = biological target: Ca^2+ channel, ds; test: Radioligand binding competition dose-response (Euroscreen), Ca2+ channel diltiazem site
Description: as §1

[4] = biological target: T2, DAT (Homo sapiens, UniProt Q01959); test: Radioligand binding competition dose-response (Euroscreen), dopamine transporter; conditions: dose-response study, maximal concentration 10 µM, [3H]WIN 35,428; read-out: %Binding inhibition at 10 µM
T2 construct: Euroscreen FAST (contract assay)
T2 sequence (Q01959 whole entry, species assumed): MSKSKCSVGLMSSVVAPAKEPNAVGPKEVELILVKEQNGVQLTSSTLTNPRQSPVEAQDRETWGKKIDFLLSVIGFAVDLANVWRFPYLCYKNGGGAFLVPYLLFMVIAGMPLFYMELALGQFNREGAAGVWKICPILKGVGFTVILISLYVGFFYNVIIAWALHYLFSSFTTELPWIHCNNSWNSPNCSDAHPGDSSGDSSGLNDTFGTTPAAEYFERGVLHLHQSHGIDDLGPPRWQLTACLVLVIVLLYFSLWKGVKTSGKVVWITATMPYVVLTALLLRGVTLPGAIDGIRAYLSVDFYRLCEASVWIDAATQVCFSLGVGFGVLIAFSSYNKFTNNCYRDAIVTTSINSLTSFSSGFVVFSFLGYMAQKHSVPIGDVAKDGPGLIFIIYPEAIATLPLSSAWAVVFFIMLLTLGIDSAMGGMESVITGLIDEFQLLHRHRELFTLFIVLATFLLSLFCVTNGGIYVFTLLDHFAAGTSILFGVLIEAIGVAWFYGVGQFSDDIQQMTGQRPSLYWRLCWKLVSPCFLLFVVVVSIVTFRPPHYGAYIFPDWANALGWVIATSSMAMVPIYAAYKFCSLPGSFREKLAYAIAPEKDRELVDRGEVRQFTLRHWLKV
Description: as §1

[5] = biological target: 5-HT2A (Homo sapiens, UniProt P28223); test: biochemical; conditions: read-out: %Binding inhibition at 10 µM
Sequence of 5-HT2A (P28223 whole entry, species assumed): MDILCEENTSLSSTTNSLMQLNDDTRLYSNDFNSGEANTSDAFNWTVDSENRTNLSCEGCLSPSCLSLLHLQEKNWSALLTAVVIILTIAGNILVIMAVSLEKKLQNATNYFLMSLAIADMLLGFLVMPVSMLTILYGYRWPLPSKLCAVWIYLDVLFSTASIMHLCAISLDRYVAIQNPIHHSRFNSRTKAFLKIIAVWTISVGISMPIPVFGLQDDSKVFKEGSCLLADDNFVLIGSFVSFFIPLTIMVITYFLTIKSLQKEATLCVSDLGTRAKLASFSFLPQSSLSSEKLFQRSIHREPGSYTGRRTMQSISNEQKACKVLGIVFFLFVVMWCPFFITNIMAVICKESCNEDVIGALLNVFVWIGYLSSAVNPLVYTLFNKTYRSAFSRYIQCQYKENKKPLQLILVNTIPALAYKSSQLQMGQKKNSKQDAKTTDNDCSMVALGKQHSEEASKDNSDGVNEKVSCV
Description: as §1

T1 sequence (P47898 whole entry, species assumed): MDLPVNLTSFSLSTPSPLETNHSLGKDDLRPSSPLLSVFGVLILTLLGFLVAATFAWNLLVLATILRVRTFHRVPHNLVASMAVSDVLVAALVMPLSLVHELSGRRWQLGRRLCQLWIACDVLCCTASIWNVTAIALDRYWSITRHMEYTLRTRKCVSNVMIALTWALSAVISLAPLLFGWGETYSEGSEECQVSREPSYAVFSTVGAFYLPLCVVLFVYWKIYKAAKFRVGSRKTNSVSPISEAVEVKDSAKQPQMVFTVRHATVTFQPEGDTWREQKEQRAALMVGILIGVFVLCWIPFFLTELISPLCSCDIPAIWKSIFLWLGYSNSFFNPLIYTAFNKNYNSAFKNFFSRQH

Question: For CSc1ccc2c(c1)C(N1CCN(C)CC1)Cc1ccccc1S2 (stereo not shown) [Methiothepin], which “%Binding inhibition at 10 µM” value [1] is on record?
Answer: Its value is 101.21%.

Question: Which results are given for COc1ccc(CCN(C)CCCC(C#N)(c2cc(OC)c(OC)c(OC)c2)C(C)C)cc1OC (stereo not shown) [Methoxyverapamil]?
Answer: pIC50 ([2]; [3H]D888 competition): 6.56; %Binding inhibition at 10 µM ([2]; dose-response study, maximal concentration 10 µM, [3H]D888): 112.06%

Question: COc1ccc([C@@H]2Sc3ccccc3N(CCN(C)C)C(=O)[C@@H]2OC(C)=O)cc1 [Diltiazem] was tested. Which pIC50 ([3]; [3H]diltiazem competition) did it give?
Answer: The pIC50 was 4.79.

Question: What about the “%Binding inhibition at 10 µM” value ([3]; dose-response study, maximal concentration 10 µM, [3H]diltiazem) of the same molecule?
Answer: Its value is 116.63%.

Question: How did the inhibition at 10 µM [4] turn out when Fc1ccc(C(OCCN2CCN(CCCc3ccccc3)CC2)c2ccc(F)cc2)cc1 [GBR 12909] was run?
Answer: Its inhibition at 10 µM is 104%.

Question: O=C(c1ccc(F)cc1)C1CCN(CCn2c(=O)[nH]c3ccccc3c2=O)CC1 [Ketanserin] was tested. Which inhibition at 10 µM [5] did it give?
Answer: Its inhibition at 10 µM is 103%.
